In patent US9809550B2, “Quinolyl hydrazones for the treatment of tuberculosis and related diseases” (TECNIMEDE SOCIEDADE TECNICO-MEDICINAL S.A., priority 2012, dated 2017):

Test system: Mycobacterium smegmatis
Assay: In vitro Mycobacterium smegmatis growth inhibition assay (suspension turbidity)
Format: cell-based
Conditions: for Inhibitory activity against Mycobacterium smegmatis growth, in words, compared with RMP: versus active control RMP; for IC50: Mycolicibacterium smegmatis, four parameter curve fit of the 96 hours growth data, read-out: IC50 (concentration to inhibit 50% of the Mycobacterium smegmatis growth)

Molecule | Inhibitory activity against Mycobacterium smegmatis growth, in words, compared with RMP | IC50 [µM] | % of Celular Growth at 96 hours (concentration 1.23 uM) [%] | % of Celular Growth at 96 hours (concentration 3.70 uM) [%] | % of Celular Growth at 96 hours (concentration 11.11 uM) [%] | % of Celular Growth at 96 hours (concentration 33.33 uM) [%] | % of Celular Growth at 96 hours (concentration 100.00 uM) [%]
3,5-dibromo-2-hydroxybenzaldehyde (2-pyridinyl)hydrazine [Compound no. 42] | superior inhibitory activity |  |  |  |  |  | 
Oc1ccc(Br)cc1C=NNc1ccc2ccccc2n1 [Compound no. 76, 5-bromo-2-hydroxybenzaldehyde 2-quinolinylhydrazone] | better IC50 values than RMP | 16.2 | 118.35 | 113.44 | 121.72 | 43.92 | 51.50
Cc1cc(NN=Cc2ccccc2O)nc2ccccc12 [Compound no. 77, 2-hydroxybenzaldehyde-(4-methyl-2-quinolinyl)hydrazone] | better IC50 values than RMP | 6.59 | 77.17 | 57.42 | 29.14 | 22.41 | 34.09
